{"source": "patent US10800812B2", "about": "“Compstatin analogs with increased solubility and improved pharmacokinetic properties” (The Trustees of the University of Pennsylvania, priority 2018, dated 2020)", "key": {"[1]": {"tested_on": "classical pathway activation (C3b deposition)", "experiment": "Classical pathway activation ELISA (C3b deposition) with or without rabbit vitreous", "assay_type": "biochemical, human", "settings": "in the absence of vitreous", "experimental": "An alternative explanation to the one presented above is that the vitreous contains additional unidentified factors that associate with the Cp40-KKK analog. To investigate whether an unidentified vitreous factor impacts the complement inhibitory activity of lysine containing compounds, complement activation assays were performed using vitreous samples. Briefly, human plasma was incubated with OVA-anti-OVA immune-complexes in the presence of serial dilutions of the Cp40-based analogs mixed with rabbit vitreous. Levels of classical pathway activation (C3b deposition) were determined by ELISA using a polyclonal anti-human C3 antibody conjugated with HRP (MP Biomedicals, Solon, Ohio) (FIG. 20)."}, "[2]": {"experiment": "Pharmacokinetics in NHP plasma after single s.c. injection", "settings": "2 mg/kg, NHP plasma, two animals"}, "[3]": {"molecular_target": "T1, human C3b (Homo sapiens, UniProt P01024)", "T1 construct": "purchased Complement Technology, Inc., Tyler, Tex", "T1 sequence (P01024 23-667 limits assumed)": "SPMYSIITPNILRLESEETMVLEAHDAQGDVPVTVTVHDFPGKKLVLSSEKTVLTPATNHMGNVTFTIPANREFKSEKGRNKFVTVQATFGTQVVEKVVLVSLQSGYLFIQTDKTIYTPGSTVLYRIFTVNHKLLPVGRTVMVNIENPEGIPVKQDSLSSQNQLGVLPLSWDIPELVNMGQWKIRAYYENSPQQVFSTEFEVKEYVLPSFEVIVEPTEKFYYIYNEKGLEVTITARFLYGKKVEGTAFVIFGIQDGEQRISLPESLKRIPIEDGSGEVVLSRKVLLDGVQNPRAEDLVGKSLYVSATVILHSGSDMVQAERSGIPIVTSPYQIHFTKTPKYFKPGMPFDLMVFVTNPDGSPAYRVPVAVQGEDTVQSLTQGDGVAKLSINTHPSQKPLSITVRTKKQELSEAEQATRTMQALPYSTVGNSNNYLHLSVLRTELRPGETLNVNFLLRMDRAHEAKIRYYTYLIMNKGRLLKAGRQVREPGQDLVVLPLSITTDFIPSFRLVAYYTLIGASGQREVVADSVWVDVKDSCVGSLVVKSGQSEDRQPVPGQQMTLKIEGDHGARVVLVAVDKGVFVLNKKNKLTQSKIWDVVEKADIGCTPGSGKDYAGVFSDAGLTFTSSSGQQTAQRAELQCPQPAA", "T1 sequence (P01024 749-1663 partner limits assumed)": "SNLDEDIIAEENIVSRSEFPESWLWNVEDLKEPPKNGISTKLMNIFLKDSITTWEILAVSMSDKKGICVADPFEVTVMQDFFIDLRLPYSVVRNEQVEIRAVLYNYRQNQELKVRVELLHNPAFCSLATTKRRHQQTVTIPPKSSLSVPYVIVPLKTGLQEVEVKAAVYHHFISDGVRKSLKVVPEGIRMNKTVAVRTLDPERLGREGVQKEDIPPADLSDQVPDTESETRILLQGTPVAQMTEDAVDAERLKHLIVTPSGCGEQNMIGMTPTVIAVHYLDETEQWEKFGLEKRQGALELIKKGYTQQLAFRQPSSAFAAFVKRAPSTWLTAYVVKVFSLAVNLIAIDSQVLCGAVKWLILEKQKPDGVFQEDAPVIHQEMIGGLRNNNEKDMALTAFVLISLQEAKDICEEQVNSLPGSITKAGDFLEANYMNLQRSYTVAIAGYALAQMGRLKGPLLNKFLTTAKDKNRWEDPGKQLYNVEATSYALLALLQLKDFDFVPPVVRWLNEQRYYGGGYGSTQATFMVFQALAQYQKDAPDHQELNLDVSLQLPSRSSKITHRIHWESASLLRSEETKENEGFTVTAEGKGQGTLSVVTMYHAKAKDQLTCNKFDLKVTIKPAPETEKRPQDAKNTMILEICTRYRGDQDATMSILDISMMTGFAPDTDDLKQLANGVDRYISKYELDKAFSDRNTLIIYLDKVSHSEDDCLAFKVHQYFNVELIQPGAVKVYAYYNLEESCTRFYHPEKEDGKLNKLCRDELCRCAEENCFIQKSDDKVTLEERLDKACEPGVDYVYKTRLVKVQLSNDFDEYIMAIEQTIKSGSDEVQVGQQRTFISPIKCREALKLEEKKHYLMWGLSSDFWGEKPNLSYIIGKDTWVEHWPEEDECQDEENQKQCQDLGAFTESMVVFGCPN", "experiment": "SPR binding affinity and kinetics with C3b", "settings": "25° C., 1:1 Langmuir model; read-out: ka, association constant"}, "[4]": {"experiment": "Pharmacokinetics after single i.m. injection", "settings": "cynomolgus monkey, in vivo, im, 25 mg/kg"}, "[5]": {"experiment": "Residence time in the vitreous after intravitreal injection (WES / SPR competition assay)", "assay_type": "in vivo, cynomolgus monkeys", "settings": "single i.v.t. injection 0.5 mg; days 14-90", "experimental": "To determine the residence time of mPEG(3k)-Cp40, mPEG(1k)-Cp40, Cp40-KK, and Cp40-KKK in the vitreous of cynomolgus macaques, these Cp40-based analogs were administered intravitreally (i.v.t.) to the animals after induction of light ketamine anesthesia (10-15 mg/kg, by intramuscular injection (i.m.)) and dilation of the pupils with tropicamide/phenylephrine ophthalmic solution (see Table 6 for study design).\nFor i.v.t. injection, the cynomolgus monkeys were anesthetized with a combination of ketamine (15-25 mg/kg, i.m.) and xylazine (2 mg/kg, i.m.) and the eye was cleaned with povidone-iodine solution. After application of oxybuprocaine hydrochloride solution (Benoxil® ophthalmic solution 0.4%) to the cornea as a local anesthetic, the Cp40-based analogs were administered to the animals by i.v.t. injection into either the right (G1, G3) or left (G2, G4) eye of each animal. Immediately following each injection, a single topical dose of 0.5% levofloxacin was administered. After i.v.t. injection of mPEG(3k)-Cp40, mPEG(1k)-Cp40, Cp40-KK, and Cp40-KKK, vitreous fluid samples (about 50 μL each) were withdrawn from Cp40-based analog-treated eyes on days 14, 28, 42, (G1, G2, G3, G4), 56, 73, 90 (G1, G2) (this was done either three times or six times). Samples were collected on ice and stored in a deep freezer (−79.3 to −68.5° C.) until further analysis. On day 73 and 90, about 100 μL of vitreous fluid from G1 and G2 were withdrawn. Presence and concentration of the Cp40-based analogs was determined using either the simple western technology (WES, ProteinSimple, San Jose, Calif.), or surface plasmon resonance (SPR)-based real-time measurement of binding kinetics on a Cp40-KKK immobilized chip (see detailed methods below). Similar results with regard to the intravitreal residence time and concentration levels of the test compounds were obtained regardless of the quantification method selected.\nTo quantify the levels of all test compounds in vitreous samples collected at different time points following i.v.t. injection (see FIG. 15), WES analysis was performed on a WES instrument (ProteinSimple, San Jose, Calif.) using a 2 to 40 kDa Separation Module and Anti-Rabbit Detection Module according to the manufacturers' instructions. In brief, undiluted eye vitreous samples were mixed with a Fluorescent Master Mix and heated at 95° C. for 5 min. The samples, blocking reagent, primary antibodies (in house developed anti-Cp40; 1:1000 in blocking reagent), HRP-conjugated secondary antibody (anti-rabbit IgG) and chemiluminescent substrate were pipetted into the plate (part of Separation Module). The used instrument settings were: stacking and separation at 375 V for 27 min; blocking reagent for 30 min, primary and secondary antibody both for 30 min; Luminol/peroxide chemiluminescence detection for ˜15 min (exposures of 5, 15, 30, 60, 120, 240, and 480 s). The resulting electropherograms were evaluated using the Compass software (ProteinSimple, San Jose, Calif.). The following criteria were used to discriminate low peptide signals from background: The peak signal-to-noise (S/N) ratio given by the software must be ≥10, and the peak height/baseline ratio (calculated manually from the peak height and baseline values given by the software) must be equal to or greater than 3. A five-point standard curve of known concentrations (100-2,000 nM) of peptide spiked in rabbit vitreous was used to calculate peptide concentration in the vitreous samples using the Compass software (Compass Software Inc., Atlanta, Ga.). […] Shown in FIG. 15 is a representative standard curve generated using the WES system and bands obtained upon running pre-determined amounts of purified peptide spiked into rabbit vitreous samples.\nTo corroborate the WES-based measurements for all test compounds, an SPR-based competition assay was developed for detecting Cp40 and Cp40 analogs in biological samples. […] The samples were heated at 95° C. for 5 min. […]"}, "[6]": {"experiment": "physchem", "settings": "pH 7.4, Conc. (solubility in PBS)"}, "[7]": {"experiment": "Pharmacokinetics after single i.v. injection", "parameters": "species or system cynomolgus monkeys", "settings": "cynomolgus monkey, in vivo, iv", "experimental": "In vivo pharmacokinetic studies were conducted, in which cynomolgus monkeys were administered single i.v. injections of mPEG(1k)-Cp40, mPEG(3k)-Cp40, Cp40-KK, or Cp40-KKK."}, "[8]": {"experiment": "Solubility of Cp40-based analogs in PBS", "settings": "for pH of the peptide solution in PBS: at the solubility concentration; for solubility: PBS, pH 7.4, Conc. (solubility in PBS), PBS (pH 7.4)"}, "[9]": {"experiment": "Lys cleavage fragments in NHP plasma after s.c. injection (UPLC-ESI-MS)", "assay_type": "in vivo, cynomolgus monkeys", "settings": "4 h after the s.c. injection of Cp40-KKK, one monkey"}, "[10]": {"settings": "single s.c. 2 mg/kg, listed as Cp40-KK (SUM)"}}}
{"compound": "CC[C@H](C)[C@H](NC(=O)[C@H](N)Cc1ccc(O)cc1)C(=O)N[C@H]1CSSC[C@@H](C(=O)N(C)[C@H](C(=O)N[C@@H](CCCCN)C(=O)N[C@@H](CCCCN)C(N)=O)[C@@H](C)CC)NC(=O)[C@H](CCCNC(=N)N)NC(=O)[C@H](Cc2c[nH]cn2)NC(=O)[C@H](C)NC(=O)CN(C)C(=O)[C@H](Cc2c[nH]c3ccccc23)NC(=O)[C@H](CC(=O)O)NC(=O)[C@H](CCC(N)=O)NC(=O)[C@H](Cc2cn(C)c3ccccc23)NC(=O)[C@H](C(C)C)NC1=O", "note": "[Cp40-KK, DTyr-Ile-[Cys-Val-Trp(Me)-Gln-Asn-Trp-Sar-Ala-His-Arg-Cys]-mIle-Lys-Lys-NH2]", "values": [{"measurement": "complement classical pathway inhibitory activity", "setting": "[1]", "value": "inhibitory activity in a dose-dependent manner"}, {"measurement": "AUC(0-t)", "setting": "[2]; male, cynomolgus monkey, plasma, sc, AUC0-t (0-120 h), single s.c. 2 mg/kg", "value": 329, "unit": "µM·h"}, {"measurement": "AUC(0-inf)", "setting": "[2]; male, cynomolgus monkey, plasma, sc, AUCinf, single s.c. 2 mg/kg", "value": 597, "unit": "µM·h"}, {"measurement": "Cmax", "setting": "[2]; male, cynomolgus monkey, plasma, sc, Cmax, single s.c. 2 mg/kg", "value": 12.9, "unit": "µM"}, {"measurement": "half-life", "setting": "[2]; male, cynomolgus monkey, plasma, sc, t1/2, single s.c. 2 mg/kg", "value": 145, "unit": "h"}, {"measurement": "Tmax", "setting": "[2]; male, cynomolgus monkey, plasma, sc, tmax, single s.c. 2 mg/kg", "value": 1, "unit": "h"}, {"measurement": "t1/2", "setting": "[2]; single s.c. 2 mg/kg", "value": 276, "unit": "h"}, {"measurement": "AUC0-t (0-120 h)", "setting": "[2]; [10]", "value": 257, "unit": "µM·h"}, {"measurement": "AUCinf", "setting": "[2]; [10]", "value": 755, "unit": "µM·h"}, {"measurement": "Cmax", "setting": "[2]; [10]", "value": 9.26, "unit": "µM"}, {"measurement": "kon", "setting": "[3]", "value": "3.94e+06", "unit": "M⁻¹ s⁻¹"}, {"measurement": "half-life", "setting": "[4]", "value": "~192", "unit": "h"}, {"measurement": "detection in the vitreous at time points post-injection", "setting": "[5]", "value": "no longer detected on day 90"}, {"measurement": "solubility", "setting": "[6]", "value": "> 245", "unit": "mg/mL"}, {"measurement": "Lys cleavage in plasma upon i.v. injection", "setting": "[7]", "value": "metabolized to minimal amounts of Cp40-K"}, {"measurement": "half-life", "setting": "[7]; single i.v. injection 2 mg/kg", "value": 49.2, "unit": "h"}]}
{"compound": "CC[C@H](C)[C@H](NC(=O)[C@H](N)Cc1ccc(O)cc1)C(=O)N[C@H]1CSSC[C@@H](C(=O)N(C)[C@H](C(=O)N[C@@H](CCCCN)C(N)=O)[C@@H](C)CC)NC(=O)[C@H](CCCNC(=N)N)NC(=O)[C@H](Cc2c[nH]cn2)NC(=O)[C@H](C)NC(=O)CN(C)C(=O)[C@H](Cc2c[nH]c3ccccc23)NC(=O)[C@H](CC(=O)O)NC(=O)[C@H](CCC(N)=O)NC(=O)[C@H](Cc2cn(C)c3ccccc23)NC(=O)[C@H](C(C)C)NC1=O", "note": "[Cp40-K, DTyr-Ile-[Cys-Val-Trp(Me)-Gln-Asn-Trp-Sar-Ala-His-Arg-Cys]-mIle-Lys-NH2]", "values": [{"measurement": "complement classical pathway inhibitory activity", "setting": "[1]", "value": "inhibitory activity in a dose-dependent manner"}, {"measurement": "pH of the peptide solution in PBS", "setting": "[8]", "value": 7.5}, {"measurement": "kon", "setting": "[3]", "value": "1.98e+06", "unit": "M⁻¹ s⁻¹"}, {"measurement": "Cp40-K detectable in plasma", "setting": "[9]", "value": 5, "unit": "µM"}]}
{"compound": "CC[C@H](C)[C@H](NC(=O)[C@@H](Cc1ccc(O)cc1)NC(=O)CCOCCOCCOCCOCCOCCOCCOCCOCCOCCOCCOCCOC)C(=O)N[C@H]1CSSC[C@@H](C(=O)N(C)[C@H](C(N)=O)[C@@H](C)CC)NC(=O)[C@H](CCCNC(=N)N)NC(=O)[C@H](Cc2c[nH]cn2)NC(=O)[C@H](C)NC(=O)CN(C)C(=O)[C@H](Cc2c[nH]c3ccccc23)NC(=O)[C@H](CC(=O)O)NC(=O)[C@H](CCC(N)=O)NC(=O)[C@H](Cc2cn(C)c3ccccc23)NC(=O)[C@H](C(C)C)NC1=O", "note": "[mPEG(528)-Cp40]", "values": [{"measurement": "solubility", "setting": "[8]", "value": 2.3, "unit": "mg/mL"}, {"measurement": "kon", "setting": "[3]", "value": "1e+06", "unit": "M⁻¹ s⁻¹"}]}
{"compound": "CC[C@H](C)[C@H](NC(=O)[C@@H](Cc1ccc(O)cc1)NC(=O)CCOCCOCCOCCOCCOCCOCCOCCOCCOCCOCCOCCOCCOCCOCCOCCOCCOCCOCCOCCOCCOCCOCCOCCOC)C(=O)N[C@H]1CSSC[C@@H](C(=O)N(C)[C@H](C(N)=O)[C@@H](C)CC)NC(=O)[C@H](CCCNC(=N)N)NC(=O)[C@H](Cc2c[nH]cn2)NC(=O)[C@H](C)NC(=O)CN(C)C(=O)[C@H](Cc2c[nH]c3ccccc23)NC(=O)[C@H](CC(=O)O)NC(=O)[C@H](CCC(N)=O)NC(=O)[C@H](Cc2cn(C)c3ccccc23)NC(=O)[C@H](C(C)C)NC1=O", "note": "[mPEG(1056)-Cp40]", "values": [{"measurement": "solubility", "setting": "[8]", "value": 137, "unit": "mg/mL"}, {"measurement": "kon", "setting": "[3]", "value": 720000, "unit": "M⁻¹ s⁻¹"}]}
{"compound": "mPEG(1k)-Cp40: N-terminus of Cp40 coupled to polydisperse PEG chain of 1 kDa via amide coupling", "values": [{"measurement": "detection in the vitreous at time points post-injection", "setting": "[5]", "value": "detected at day 14 post injection but not in later time points"}, {"measurement": "AUC0-120 h", "setting": "[7]", "value": "304.4 to 312", "unit": "µM·h"}]}
{"compound": "mPEG(2k)-Cp40: N-terminus of Cp40 coupled to polydisperse PEG chain of 2 kDa via amide coupling", "values": [{"measurement": "pH of the peptide solution in PBS", "setting": "[8]", "value": 7.5}]}
